In patent US8703961B2, “Thiazole derivatives for the treatment of diseases such as cancer” (Merck Patent GmbH, priority 2009, dated 2014) one finds IC50 and remaining activity data, which are given here for five compounds.

Test in all cases: filter binding kinase assay
What all share (format): biochemical

The target in test [1] is T1, CAMKK2 (Homo sapiens, UniProt Q96RR4).
T1 construct: purchased
Conditions: derived from % inhibition at 1 μM. The procedure, abridged:
(§1)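 Radioactivity retained on P81 phosphocellulose filters is the read-out. Before the reaction begins, test substance sits with kinase and substrate for 5 minutes at room temperature. The ATP solution added is 5, 20 or 50 […] according to the kinase, and acid quench ends the reaction.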

Test [2] has as its target T2, PAK6 (Homo sapiens, UniProt Q9NQU5).
T2 construct: purchased
Conditions: derived from % inhibition at 1 μM. The procedure, abridged:
as §1

For test [3], the target named is T3, MAP3K9 (Homo sapiens, UniProt P80192).
T3 construct: purchased
Conditions: derived from % inhibition at 1 μM. A digest of the protocol: as §1

The target in test [4] is T4, RIPK2 (Homo sapiens, UniProt O43353).
T4 construct: purchased
Conditions: derived from % inhibition at 1 μM. The procedure, abridged: as §1

The target in test [5] is T5, MAPK14 (Homo sapiens, UniProt Q16539).
T5 construct: purchased
Conditions: derived from % inhibition at 1 μM. A digest of the protocol: as §1

Test [6] deals with T6, DYRK3 (Homo sapiens, UniProt O43781).
T6 construct: purchased
T6 sequence (O43781 1-588): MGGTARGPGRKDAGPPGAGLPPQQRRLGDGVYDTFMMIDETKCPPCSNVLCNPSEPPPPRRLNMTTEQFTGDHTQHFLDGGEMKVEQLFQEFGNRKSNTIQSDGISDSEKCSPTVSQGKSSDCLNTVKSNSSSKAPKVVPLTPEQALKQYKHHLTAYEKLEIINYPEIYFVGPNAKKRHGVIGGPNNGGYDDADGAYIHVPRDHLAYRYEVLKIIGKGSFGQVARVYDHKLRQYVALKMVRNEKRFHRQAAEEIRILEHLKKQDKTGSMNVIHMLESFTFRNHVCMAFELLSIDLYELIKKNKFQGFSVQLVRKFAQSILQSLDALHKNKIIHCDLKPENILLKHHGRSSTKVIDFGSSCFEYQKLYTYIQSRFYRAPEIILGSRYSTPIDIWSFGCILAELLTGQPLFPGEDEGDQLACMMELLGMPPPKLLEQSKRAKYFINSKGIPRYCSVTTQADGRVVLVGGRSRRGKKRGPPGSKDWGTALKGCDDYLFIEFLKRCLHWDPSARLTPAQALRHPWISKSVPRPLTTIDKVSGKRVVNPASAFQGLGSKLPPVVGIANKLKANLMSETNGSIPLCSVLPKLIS
Conditions: derived from % inhibition at 1 μM. A digest of the protocol:
as §1

Test [7] deals with T7, BTK (Homo sapiens, UniProt Q06187).
T7 construct: purchased
Conditions: derived from % inhibition at 1 μM. A digest of the protocol:
as §1

The target in test [8] is T8, SYK (Homo sapiens, UniProt P43405).
T8 construct: purchased
Conditions: derived from % inhibition at 1 μM. A digest of the protocol:
as §1

Test [9] concerns the target T9, NEK2 (Nek2A) (Homo sapiens, UniProt P51955).
T9 construct: purchased
T9 sequence (P51955 1-445): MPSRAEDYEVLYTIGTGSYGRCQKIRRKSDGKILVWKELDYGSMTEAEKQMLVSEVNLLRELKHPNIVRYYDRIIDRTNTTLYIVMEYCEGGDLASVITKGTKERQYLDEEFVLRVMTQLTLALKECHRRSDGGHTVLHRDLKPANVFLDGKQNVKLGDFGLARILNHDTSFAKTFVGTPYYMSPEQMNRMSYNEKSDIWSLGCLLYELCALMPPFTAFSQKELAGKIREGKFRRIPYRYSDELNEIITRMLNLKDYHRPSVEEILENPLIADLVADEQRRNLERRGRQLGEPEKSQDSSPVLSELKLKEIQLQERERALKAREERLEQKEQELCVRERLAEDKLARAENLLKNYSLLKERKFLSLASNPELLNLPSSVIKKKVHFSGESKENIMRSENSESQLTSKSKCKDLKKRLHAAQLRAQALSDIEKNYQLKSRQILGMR
Conditions: for IC50: derived from % inhibition at 1 μM. A digest of the protocol: as §1

The target in test [10] is T10, IKBKB (Homo sapiens, UniProt O14920).
T10 construct: purchased
T10 sequence (O14920 1-756): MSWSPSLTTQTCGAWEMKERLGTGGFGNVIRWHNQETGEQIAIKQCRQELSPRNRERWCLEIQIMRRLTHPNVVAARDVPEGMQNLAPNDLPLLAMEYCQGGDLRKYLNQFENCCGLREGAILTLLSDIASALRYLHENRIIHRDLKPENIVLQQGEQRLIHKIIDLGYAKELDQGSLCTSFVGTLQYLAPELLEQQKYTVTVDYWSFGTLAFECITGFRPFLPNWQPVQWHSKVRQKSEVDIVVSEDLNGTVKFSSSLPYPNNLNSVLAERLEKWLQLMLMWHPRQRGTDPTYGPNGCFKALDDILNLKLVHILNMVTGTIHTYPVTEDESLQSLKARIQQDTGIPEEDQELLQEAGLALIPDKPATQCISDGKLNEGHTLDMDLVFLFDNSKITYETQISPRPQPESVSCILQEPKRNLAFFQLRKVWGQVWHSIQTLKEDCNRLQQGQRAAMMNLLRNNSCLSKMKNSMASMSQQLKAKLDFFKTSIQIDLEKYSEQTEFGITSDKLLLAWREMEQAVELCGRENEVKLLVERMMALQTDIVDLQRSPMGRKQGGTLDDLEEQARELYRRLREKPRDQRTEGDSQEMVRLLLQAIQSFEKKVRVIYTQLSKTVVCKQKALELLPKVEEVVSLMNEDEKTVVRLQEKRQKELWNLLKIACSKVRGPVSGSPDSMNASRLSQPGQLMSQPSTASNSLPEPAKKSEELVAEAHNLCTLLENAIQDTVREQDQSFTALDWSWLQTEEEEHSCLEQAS
Conditions: derived from % inhibition at 1 μM. The procedure, abridged: as §1

Test [11] concerns the target T11, MAPKAPK3 (Homo sapiens, UniProt Q16644).
T11 construct: purchased
Conditions: derived from % inhibition at 1 μM. A digest of the protocol:
as §1

The target of test [12] is T12, KDR (VEGFR) (Homo sapiens, UniProt P35968).
T12 construct: purchased
Conditions: for IC50: derived from % inhibition at 1 μM. A digest of the protocol:
as §1

Test [13] has as its target T13, HIPK3 (Homo sapiens, UniProt Q9H422).
T13 construct: purchased
Conditions: derived from % inhibition at 1 μM. The procedure, abridged: as §1

Test [14] has as its target T14, HIPK1 (Homo sapiens, UniProt Q86Z02).
T14 construct: purchased
Conditions: for IC50: derived from % inhibition at 1 μM; for remaining activity at 1 µM: read-out: residual kinase activity HIPK1. A digest of the protocol:
as §1

T13 sequence (Q9H422 whole entry, species assumed): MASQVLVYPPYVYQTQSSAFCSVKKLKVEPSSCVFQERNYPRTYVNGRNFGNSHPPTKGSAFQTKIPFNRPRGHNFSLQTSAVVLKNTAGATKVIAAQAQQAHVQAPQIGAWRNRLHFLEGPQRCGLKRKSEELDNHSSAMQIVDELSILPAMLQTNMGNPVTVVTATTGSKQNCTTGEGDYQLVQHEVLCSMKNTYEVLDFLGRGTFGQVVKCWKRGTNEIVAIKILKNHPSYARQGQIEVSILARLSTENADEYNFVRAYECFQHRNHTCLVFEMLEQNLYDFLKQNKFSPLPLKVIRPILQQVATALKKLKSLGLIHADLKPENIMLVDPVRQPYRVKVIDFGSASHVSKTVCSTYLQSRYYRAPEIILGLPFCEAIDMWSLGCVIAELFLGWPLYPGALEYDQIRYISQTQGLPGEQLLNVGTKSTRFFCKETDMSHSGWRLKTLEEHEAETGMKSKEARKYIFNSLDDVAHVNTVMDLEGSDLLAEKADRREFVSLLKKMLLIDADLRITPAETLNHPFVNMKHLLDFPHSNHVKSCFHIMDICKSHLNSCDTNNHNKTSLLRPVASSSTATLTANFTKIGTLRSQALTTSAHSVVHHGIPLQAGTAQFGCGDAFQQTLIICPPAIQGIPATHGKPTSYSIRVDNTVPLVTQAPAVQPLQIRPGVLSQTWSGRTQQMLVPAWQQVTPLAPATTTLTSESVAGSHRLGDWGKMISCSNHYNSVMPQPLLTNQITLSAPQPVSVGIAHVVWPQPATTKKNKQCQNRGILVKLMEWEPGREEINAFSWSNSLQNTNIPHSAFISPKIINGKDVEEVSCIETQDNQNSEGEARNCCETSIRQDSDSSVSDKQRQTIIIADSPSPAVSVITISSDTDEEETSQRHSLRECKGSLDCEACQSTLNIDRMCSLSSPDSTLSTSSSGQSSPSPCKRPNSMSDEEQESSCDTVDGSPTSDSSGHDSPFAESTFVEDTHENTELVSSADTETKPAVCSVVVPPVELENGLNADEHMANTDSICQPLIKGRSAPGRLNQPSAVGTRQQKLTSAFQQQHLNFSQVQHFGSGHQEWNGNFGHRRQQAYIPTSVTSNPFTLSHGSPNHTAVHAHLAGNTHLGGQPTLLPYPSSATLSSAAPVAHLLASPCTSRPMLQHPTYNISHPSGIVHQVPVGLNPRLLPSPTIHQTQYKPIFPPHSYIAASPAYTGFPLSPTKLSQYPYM
T5 sequence (Q16539 whole entry, species assumed): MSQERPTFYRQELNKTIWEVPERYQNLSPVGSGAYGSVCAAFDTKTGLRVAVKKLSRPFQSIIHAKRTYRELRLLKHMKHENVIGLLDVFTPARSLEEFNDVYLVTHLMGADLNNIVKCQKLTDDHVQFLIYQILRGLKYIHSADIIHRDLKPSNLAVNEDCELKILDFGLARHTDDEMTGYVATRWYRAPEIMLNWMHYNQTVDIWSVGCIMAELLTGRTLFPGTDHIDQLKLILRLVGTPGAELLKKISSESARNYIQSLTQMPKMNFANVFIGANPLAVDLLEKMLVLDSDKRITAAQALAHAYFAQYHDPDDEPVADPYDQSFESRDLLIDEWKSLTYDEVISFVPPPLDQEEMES
T14 sequence (Q86Z02 whole entry, species assumed): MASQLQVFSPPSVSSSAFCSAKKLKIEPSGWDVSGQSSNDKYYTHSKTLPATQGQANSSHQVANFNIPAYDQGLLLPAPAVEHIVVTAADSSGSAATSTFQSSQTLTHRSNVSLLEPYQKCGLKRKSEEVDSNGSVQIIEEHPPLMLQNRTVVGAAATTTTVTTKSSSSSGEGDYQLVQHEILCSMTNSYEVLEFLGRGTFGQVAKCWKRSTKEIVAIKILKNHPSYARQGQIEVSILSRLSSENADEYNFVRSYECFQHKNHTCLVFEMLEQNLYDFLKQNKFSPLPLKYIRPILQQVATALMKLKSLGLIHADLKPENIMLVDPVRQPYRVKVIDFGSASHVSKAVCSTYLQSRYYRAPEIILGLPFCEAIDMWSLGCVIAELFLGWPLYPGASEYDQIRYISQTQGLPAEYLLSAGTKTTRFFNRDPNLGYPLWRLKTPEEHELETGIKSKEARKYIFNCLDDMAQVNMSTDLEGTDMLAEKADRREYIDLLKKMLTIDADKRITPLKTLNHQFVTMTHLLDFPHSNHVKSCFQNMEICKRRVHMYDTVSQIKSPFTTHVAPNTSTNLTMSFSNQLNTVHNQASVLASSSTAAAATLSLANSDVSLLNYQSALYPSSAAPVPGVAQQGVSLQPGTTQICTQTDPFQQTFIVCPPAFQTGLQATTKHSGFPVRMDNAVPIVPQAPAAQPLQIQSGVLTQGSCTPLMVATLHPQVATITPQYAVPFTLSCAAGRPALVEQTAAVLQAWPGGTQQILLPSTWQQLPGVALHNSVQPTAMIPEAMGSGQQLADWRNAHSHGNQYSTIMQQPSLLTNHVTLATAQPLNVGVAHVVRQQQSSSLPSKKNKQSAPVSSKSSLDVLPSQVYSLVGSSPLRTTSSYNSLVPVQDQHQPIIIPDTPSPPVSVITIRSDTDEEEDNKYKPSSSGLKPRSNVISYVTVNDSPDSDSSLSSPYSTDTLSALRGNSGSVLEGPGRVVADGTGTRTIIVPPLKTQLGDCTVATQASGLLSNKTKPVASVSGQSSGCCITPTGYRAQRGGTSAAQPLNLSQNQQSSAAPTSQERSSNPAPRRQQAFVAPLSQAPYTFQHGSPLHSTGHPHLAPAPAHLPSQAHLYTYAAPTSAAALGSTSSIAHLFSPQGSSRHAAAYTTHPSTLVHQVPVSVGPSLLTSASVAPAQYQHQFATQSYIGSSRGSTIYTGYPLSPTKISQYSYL
T1 sequence (Q96RR4 whole entry, species assumed): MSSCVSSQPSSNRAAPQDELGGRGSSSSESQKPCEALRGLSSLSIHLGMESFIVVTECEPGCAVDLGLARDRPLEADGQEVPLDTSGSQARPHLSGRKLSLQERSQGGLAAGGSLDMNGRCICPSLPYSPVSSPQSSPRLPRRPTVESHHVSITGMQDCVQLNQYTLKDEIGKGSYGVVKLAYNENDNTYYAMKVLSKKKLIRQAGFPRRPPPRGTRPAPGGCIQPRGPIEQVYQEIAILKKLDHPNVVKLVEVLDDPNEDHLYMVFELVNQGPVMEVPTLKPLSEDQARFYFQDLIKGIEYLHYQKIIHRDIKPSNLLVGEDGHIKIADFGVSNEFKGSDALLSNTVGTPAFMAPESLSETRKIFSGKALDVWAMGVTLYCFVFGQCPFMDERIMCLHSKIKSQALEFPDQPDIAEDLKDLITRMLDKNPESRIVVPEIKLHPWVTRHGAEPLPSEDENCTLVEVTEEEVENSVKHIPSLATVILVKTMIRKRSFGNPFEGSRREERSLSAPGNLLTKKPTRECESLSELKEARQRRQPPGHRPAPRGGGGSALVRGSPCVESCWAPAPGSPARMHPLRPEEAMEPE
T4 sequence (O43353 whole entry, species assumed): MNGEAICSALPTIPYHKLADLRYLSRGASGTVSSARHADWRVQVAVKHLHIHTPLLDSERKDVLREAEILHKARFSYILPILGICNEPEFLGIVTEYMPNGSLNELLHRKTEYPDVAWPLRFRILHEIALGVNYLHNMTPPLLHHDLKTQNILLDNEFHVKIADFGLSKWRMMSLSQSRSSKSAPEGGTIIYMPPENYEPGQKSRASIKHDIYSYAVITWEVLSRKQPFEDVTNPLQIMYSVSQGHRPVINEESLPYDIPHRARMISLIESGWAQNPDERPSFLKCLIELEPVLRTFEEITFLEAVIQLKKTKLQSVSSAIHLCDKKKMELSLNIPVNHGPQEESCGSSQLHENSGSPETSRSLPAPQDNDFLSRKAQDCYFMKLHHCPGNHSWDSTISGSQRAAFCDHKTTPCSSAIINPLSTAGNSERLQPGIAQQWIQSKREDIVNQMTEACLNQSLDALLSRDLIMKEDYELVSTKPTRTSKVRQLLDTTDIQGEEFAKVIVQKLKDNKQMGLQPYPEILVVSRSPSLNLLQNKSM
T2 sequence (Q9NQU5 whole entry, species assumed): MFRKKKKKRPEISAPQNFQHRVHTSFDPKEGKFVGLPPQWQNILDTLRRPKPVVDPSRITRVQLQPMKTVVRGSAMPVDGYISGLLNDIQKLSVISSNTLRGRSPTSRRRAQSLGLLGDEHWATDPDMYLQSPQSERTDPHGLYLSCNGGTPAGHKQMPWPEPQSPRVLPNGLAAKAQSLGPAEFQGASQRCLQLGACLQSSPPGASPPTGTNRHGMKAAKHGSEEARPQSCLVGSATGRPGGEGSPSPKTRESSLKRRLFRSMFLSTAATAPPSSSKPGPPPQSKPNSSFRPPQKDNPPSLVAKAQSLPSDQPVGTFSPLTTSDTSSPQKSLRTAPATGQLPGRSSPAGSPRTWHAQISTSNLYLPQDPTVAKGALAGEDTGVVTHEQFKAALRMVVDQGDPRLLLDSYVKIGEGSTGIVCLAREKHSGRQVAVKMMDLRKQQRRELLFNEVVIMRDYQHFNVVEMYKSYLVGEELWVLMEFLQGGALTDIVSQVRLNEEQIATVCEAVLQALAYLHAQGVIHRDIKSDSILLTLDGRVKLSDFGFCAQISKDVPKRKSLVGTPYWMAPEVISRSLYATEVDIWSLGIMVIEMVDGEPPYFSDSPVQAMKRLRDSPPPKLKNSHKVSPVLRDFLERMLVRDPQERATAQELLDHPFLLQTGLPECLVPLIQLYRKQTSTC
T11 sequence (Q16644 whole entry, species assumed): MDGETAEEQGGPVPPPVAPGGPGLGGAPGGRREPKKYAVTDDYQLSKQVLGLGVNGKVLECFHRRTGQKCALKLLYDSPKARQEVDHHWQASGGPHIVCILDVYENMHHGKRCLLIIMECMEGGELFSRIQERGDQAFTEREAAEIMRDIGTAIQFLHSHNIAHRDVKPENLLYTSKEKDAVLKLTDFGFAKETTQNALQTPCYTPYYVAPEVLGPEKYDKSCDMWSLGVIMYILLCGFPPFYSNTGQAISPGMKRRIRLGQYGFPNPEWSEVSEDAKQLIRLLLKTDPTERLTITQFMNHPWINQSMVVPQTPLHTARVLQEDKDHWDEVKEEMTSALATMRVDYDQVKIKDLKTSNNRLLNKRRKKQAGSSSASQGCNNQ

Take `Nc1ncsc1C#Cc1cccc(O)c1` [Compound A27, 3-(4-aminothiazol-5-ylethynyl)phenol]: the IC50 lay in the range of 10 to 100 µM in test [1]; 10 to 100 µM in test [2]; 1 to 10 µM in test [3]; 1 to 10 µM in test [4]; 1 to 10 µM in test [5]; 10 to 100 µM in test [6]. Moreover, the IC50 in test [7] lay within 10 to 100 µM; in test [8], 10 to 100 µM; in [9], 1 to 10 µM; in test [10], 1 to 10 µM; in [11], 10 to 100 µM; in test [12], 1 to 10 µM. Besides, the IC50 in [13] and in [14] was 1 to 10 µM throughout. Besides, in test [9] (read-out: residual kinase activity Nek2A), the remaining activity at 1 µM was 59%.

On to `CC(C)(C)OC(=O)Nc1ncsc1C#CCN1C(=O)c2ccccc2C1=O` [Compound A26, tert-butyl{5-[3-(1,3-dioxo-1,3-dihydroisoindol-2-yl)prop-1-ynyl]-thiazol-4-yl}carbamate], for which the IC50 in test [1] was 10 to 100 µM; in test [2] it was over 1 µM; in test [3], 1 to 10 µM; in test [4], 10 to 100 µM; in [5] it was 10 to 100 µM; in test [6], 1 to 10 µM. For the same compound, the IC50 was over 1 µM in test [7]; over 1 µM in test [8]; 1 to 10 µM in [9]; over 1 µM in test [10]; over 1 µM in test [11]; over 1 µM in test [12]. The concentration for half-maximal inhibition (IC50) is 10 to 100 µM in test [13] and over 1 µM in test [14].

As for `CC(C)(C)OC(=O)Nc1nc(-c2ccncc2)sc1C#CCN1CCOCC1` [Compound A25, tert-butyl[5-(3-morpholin-4-ylprop-1-ynyl)-2-pyridin-4-ylthiazol-4-yl]-carbamate], the IC50 in test [1] was over 1 µM; in test [2], 10 to 100 µM; in test [3] it was over 1 µM; in test [4], over 1 µM; in test [5] it was 10 to 100 µM; in [6], 10 to 100 µM. Moreover, the IC50 in test [7] was 10 to 100 µM; in [8], over 1 µM; in test [9], 1 to 10 µM; in [10] it was over 1 µM; in [11], 10 to 100 µM; in [12], over 1 µM. Also, the figures for the IC50 in test [13] and in test [14] were 10 to 100 µM and 0.01 to 1 µM, respectively. The remaining activity at 1 µM in [14] is 48%.

Regarding `c1ccc(Cc2c[nH]c3ncsc23)cc1` [Compound A7, 6-benzyl-4H-pyrrolo[2,3-d]thiazole], the IC50 in [1] was 10 to 100 µM; in test [2] it was over 1 µM; in [3] it was 1 to 10 µM; in test [4], 10 to 100 µM; in test [5] it was 1 to 10 µM; in test [6], 10 to 100 µM. For the same compound, the IC50 in [7] is 10 to 100 µM; in test [8] it was over 1 µM; in test [9], over 1 µM; in [10] it was 1 to 10 µM; in test [11] it was over 1 µM; in test [12] it was 1 to 10 µM. Also, the results for the IC50 in [13] and in test [14] were 1 to 10 µM and over 1 µM, respectively.

Turning to `Nc1ncsc1C#Cc1cnc2[nH]ccc2c1` [Compound A22, 5-(1H-pyrrolo[2,3-b]pyridin-5-ylethynyl)thiazol-4-ylamine], the half-maximal inhibitory concentration (IC50) in test [1] is over 1 µM; in test [2], 10 to 100 µM; in test [3] it was 1 to 10 µM; in [4], 1 to 10 µM; in [5], 10 to 100 µM; in test [6], 10 to 100 µM. In addition, the IC50 was 10 to 100 µM in test [7]; 10 to 100 µM in test [8]; over 1 µM in [9]; 10 to 100 µM in [10]; over 1 µM in test [11]; 0.01 to 1 µM in test [12]. Further, the values for the IC50 in test [13] and in test [14] were 1 to 10 µM and 0.01 to 1 µM, respectively. In addition, the remaining activity at 1 µM in [12] (read-out: residual kinase activity VEGFR) turned out to be 11%; in test [14], 36%.

For orientation: IC50 means the concentration that inhibits the measured activity by half. A low value points to inhibition by little substance.
